# Experimental data reported in paper PMC7317746 (Environmental and Molecular Mutagenesis, 2020).
# Like-named read-outs stand apart in the source and are kept apart here. Marks after values point to notes of the source that are not given here.
# How the values were obtained:
# [1] = tested on: male Sprague Dawley rats; assay: Pig‐a assay; type: in vivo, rat
# [2] = tested on: male Sprague Dawley rats; assay: Micronucleus assay in peripheral blood erythrocytes; type: in vivo, rat
# [3] = tested on: peripheral blood cells; assay: Comet assay, peripheral blood cells; type: in vivo, rat
# [4] = tested on: liver cells; assay: Comet assay, liver cells; type: in vivo, rat
# [5] = tested on: male Sprague Dawley rats; conditions: 1-Month Study, 1,000 mg/kg/day
# [6] = tested on: bacteria, in vitro mammalian cell and in vivo transgenic rat assays; conditions: ref IARC, 1990, Bergman et al., 1996; cited from earlier work
# [7] = 3-Day Study, 1,000 mg/kg/day Days 1-3, Day 30
# [8] = 3-Day Study, 1,000 mg/kg/day Days 1-3, Day 45
# [9] = 3-Day Study, 1,000 mg/kg/day, Day -4 (pre-treatment)
# [10] = 3-Day Study, 2,000 mg/kg/day Days 1-3, Day 15
# [11] = 3-Day Study, 2,000 mg/kg/day Days 1-3, Day 30
# [12] = 3-Day Study, 2,000 mg/kg/day Days 1-3, Day 45
# [13] = 3-Day Study, 2,000 mg/kg/day, Day -4 (pre-treatment)
# [14] = 1-Month Study, 250 mg/kg/day, Day 4
# [15] = 1-Month Study, 250 mg/kg/day, Day 29
# [16] = 1-Month Study, 500 mg/kg/day, Day 4
# [17] = 1-Month Study, 500 mg/kg/day, Day 29
# [18] = 1-Month Study, 1,000 mg/kg/day, Day 29
# [19] = 3-Day Study, 500 mg/kg/day, Day 4
# [20] = ≤1,000 mg/kg/day, up to 29 days
# [21] = 3-Day Study, 500 mg/kg/day, Day 3
# [22] = 3-Day Study, 1,000 mg/kg/day, Day 3
# [23] = 3-Day Study, 2,000 mg/kg/day, Day 3
smiles,measurement,setting,value
"CC(=O)Nc1ccc(O)cc1 [acetaminophen, Acetaminophen]",Number of CD59‐Neg RBCs per 10^6 RBCs mean ± SD,[1]; [7],0.8 ± 0.4 per 10^6 RBCs
same,Number of CD59‐Neg RETs per 10^6 RETs mean ± SD,[1]; [7],1.5 ± 1.8 per 10^6 RETs
same,%RETs mean ± SD,[1]; [8],2.9 ± 0.3%
same,Number of CD59‐Neg RBCs per 10^6 RBCs mean ± SD,[1]; [8],1.1 ± 1.1 per 10^6 RBCs
same,Number of CD59‐Neg RETs per 10^6 RETs mean ± SD,[1]; [8],2.0 ± 2.1 per 10^6 RETs
same,%RETs mean ± SD,[1]; [9],3.6 ± 0.8%
same,Number of CD59‐Neg RBCs per 10^6 RBCs mean ± SD,[1]; [9],0.4 ± 0.2 per 10^6 RBCs
same,Number of CD59‐Neg RETs per 10^6 RETs mean ± SD,[1]; [9],1.2 ± 0.5 per 10^6 RETs
same,%RETs mean ± SD,[1]; [10],5.7 ± 0.4 %
same,Number of CD59‐Neg RBCs per 10^6 RBCs mean ± SD,[1]; [10],2.9 ± 6.1 per 10^6 RBCs
same,Number of CD59‐Neg RETs per 10^6 RETs mean ± SD,[1]; [10],11.3 ± 26.2 per 10^6 RETs
same,%RETs mean ± SD,[1]; [11],3.3 ± 0.6%
same,Number of CD59‐Neg RBCs per 10^6 RBCs mean ± SD,[1]; [11],32.4 ± 78.4 per 10^6 RBCs
same,Number of CD59‐Neg RETs per 10^6 RETs mean ± SD,[1]; [11],40.3 ± 98.3 per 10^6 RETs
same,%RETs mean ± SD,[1]; [12],2.4 ± 0.2 %
same,Number of CD59‐Neg RBCs per 10^6 RBCs mean ± SD,[1]; [12],38.5 ± 92.8 per 10^6 RBCs
same,Number of CD59‐Neg RETs per 10^6 RETs mean ± SD,[1]; [12],15.1 ± 36.2 per 10^6 RETs
same,%RETs mean ± SD,[1]; [13],3.2 ± 0.8%
same,Number of CD59‐Neg RBCs per 10^6 RBCs mean ± SD,[1]; [13],0.3 ± 0.1 per 10^6 RBCs
same,Number of CD59‐Neg RETs per 10^6 RETs mean ± SD,[1]; [13],1.2 ± 0.6 per 10^6 RETs
same,Mutagenicity in the rat Pig‐a model (conclusion),"[1]; 250-2,000 mg/kg/day, 3-Day, 2-Week and 1-Month Studies",not mutagenic
same,%MN‐RETs mean ± SD,[2]; [14],0.14 ± 0.03%
same,%RETs mean ± SD,[2]; [14],2.89 ± 1.89%
same,%MN‐RETs mean ± SD,[2]; [15],0.15 ± 0.05%
same,%RETs mean ± SD,[2]; [15],1.32 ± 0.25%
same,%MN‐RETs mean ± SD,[2]; [16],0.18 ± 0.07%
same,%RETs mean ± SD,[2]; [16],1.80 ± 1.98%
same,%MN‐RETs mean ± SD,[2]; [17],0.22 ± 0.04^ %
same,%RETs mean ± SD,[2]; [17],1.03 ± 0.28%
same,%RETs mean ± SD,"[2]; 1-Month Study, 1,000 mg/kg/day, Day 4",0.03 ± 0.02 %
same,%MN‐RETs mean ± SD,[2]; [18],0.59 ± 0.23^ %
same,%RETs mean ± SD,[2]; [18],1.48 ± 1.05%
same,%MN‐RETs mean ± SD,[2]; [19],0.12 ± 0.05%
same,%RETs mean ± SD,[2]; [19],0.89 ± 0.68%
same,%RETs mean ± SD,"[2]; 3-Day Study, 1,000 mg/kg/day, Day 4",0.08 ± 0.08 %
same,%MN‐RETs mean ± SD,"[2]; 3-Day Study, 1,000 mg/kg/day, Day 4, only 1 animal analyzed",0.21 ^a %
same,%RETs mean ± SD,"[2]; 3-Day Study, 2,000 mg/kg/day, Day 4",0.03 ± 0.04 %
same,Micronucleus endpoint in peripheral blood RETs (conclusion),[2]; [20],negative
same,Blood % tail intensity mean ± SD,[3]; [15],0.13 ± 0.08%
same,Blood % tail intensity mean ± SD,[3]; [17],0.19 ± 0.10%
same,Blood % tail intensity mean ± SD,[3]; [18],0.24 ± 0.15%
same,Blood % tail intensity mean ± SD,[3]; [21],0.31 ± 0.11%
same,Blood % tail intensity mean ± SD,[3]; [22],0.41 ± 0.12 %
same,Blood % tail intensity mean ± SD,[3]; [23],0.34 ± 0.07%
same,Increase in % tail intensity in peripheral blood cells versus vehicle,"[3]; 3-Day Study, at 1,000 mg/kg/day, not considered biologically relevant",up to 1.6 fold
same,Liver % tail intensity mean ± SD,[4]; [15],0.20 ± 0.11%
same,Liver % tail intensity mean ± SD,[4]; [17],0.18 ± 0.06%
same,Liver % tail intensity mean ± SD,[4]; [18],0.34 ± 0.25 %
same,Liver % tail intensity mean ± SD,[4]; [21],0.22 ± 0.09%
same,Liver % tail intensity mean ± SD,[4]; [22],0.27 ± 0.10%
same,Liver % tail intensity mean ± SD,[4]; [23],0.28 ± 0.07 %
same,Comet endpoint in peripheral blood cells and liver cells (conclusion),[4]; [20],negative
same,Rats with minimal remnants of treatment‐related liver changes,[5]; after 1-month recovery period,2/6
same,Rats with minimal to slight liver changes in the centrilobular region,[5]; after 1 month,9/16
same,Rats with minimal to slight liver changes in the centrilobular region,[5]; after 1 week,5/5
same,Mutagenicity,[6],nonmutagenic
